# Assay results from ChEMBL document CHEMBL1153220, “Chemical lead optimization of a pan G(q) mAChR M(1), M(3), M(5) positive allosteric modulator (PAM) lead. Part I: Development of the first highly selective M(5) PAM” (Bioorg Med Chem Lett, 2010).
# Tests used:
# [1] = biological target: T1, Muscarinic acetylcholine receptor M1 (Rattus norvegicus, UniProt P08482); test: Agonist activity at rat muscarinic M1 expressed in CHO cells assessed as stimulation of calcium mobilization; type: functional, cell-based
# T1 sequence (P08482 whole entry): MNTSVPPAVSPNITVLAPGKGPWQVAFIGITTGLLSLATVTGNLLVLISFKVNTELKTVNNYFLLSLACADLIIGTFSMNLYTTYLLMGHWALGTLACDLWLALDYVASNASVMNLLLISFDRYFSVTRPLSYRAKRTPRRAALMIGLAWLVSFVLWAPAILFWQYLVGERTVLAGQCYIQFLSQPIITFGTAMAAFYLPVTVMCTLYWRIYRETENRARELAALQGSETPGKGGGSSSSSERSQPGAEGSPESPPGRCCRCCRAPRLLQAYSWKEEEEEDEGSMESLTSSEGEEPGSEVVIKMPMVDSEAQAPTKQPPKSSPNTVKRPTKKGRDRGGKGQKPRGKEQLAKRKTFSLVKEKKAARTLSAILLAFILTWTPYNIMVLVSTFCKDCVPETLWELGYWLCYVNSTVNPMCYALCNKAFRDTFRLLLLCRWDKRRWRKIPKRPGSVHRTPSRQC
# [2] = biological target: T2, Muscarinic acetylcholine receptor M5 (Homo sapiens, UniProt P08912); test: Agonist activity at human muscarinic M5 expressed in CHO cells assessed as stimulation of calcium mobilization; type: functional, cell-based
# T2 sequence (P08912 whole entry): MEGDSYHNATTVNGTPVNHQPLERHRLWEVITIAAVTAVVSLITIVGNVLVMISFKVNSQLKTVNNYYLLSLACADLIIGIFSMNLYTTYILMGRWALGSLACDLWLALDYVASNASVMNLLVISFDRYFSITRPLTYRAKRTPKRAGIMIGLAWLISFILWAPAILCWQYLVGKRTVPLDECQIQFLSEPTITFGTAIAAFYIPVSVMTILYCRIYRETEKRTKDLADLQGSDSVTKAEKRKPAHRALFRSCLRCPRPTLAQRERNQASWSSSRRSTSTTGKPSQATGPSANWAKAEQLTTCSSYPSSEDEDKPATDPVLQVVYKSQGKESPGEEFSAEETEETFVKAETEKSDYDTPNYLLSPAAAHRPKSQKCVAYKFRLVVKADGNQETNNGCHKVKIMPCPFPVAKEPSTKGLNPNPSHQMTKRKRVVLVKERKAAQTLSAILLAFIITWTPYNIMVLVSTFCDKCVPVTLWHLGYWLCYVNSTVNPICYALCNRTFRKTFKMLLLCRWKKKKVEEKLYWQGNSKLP
# [3] = biological target: T3, Muscarinic acetylcholine receptor M5 (Homo sapiens) (UniProt P08912); test: Agonist activity at human muscarinic M5 expressed in CHO cells assessed as stimulation of calcium mobilization relative to acetyle choline; type: functional, cell-based; parameters: concentration or dose not given beside the values
# T3 sequence (whole entry): T2 sequence (P08912 whole entry)
# [4] = Ratio of AUC in rat brain to AUC in rat plasma; type: ADME, tissue-based; details: read-out: Ratio AUC
# [5] = biological target: T4, Muscarinic acetylcholine receptor M2 (Rattus norvegicus, UniProt P10980); test: Agonist activity at rat muscarinic M2 expressed in CHO cells assessed as stimulation of calcium mobilization; type: functional, cell-based
# T4 sequence (P10980 whole entry): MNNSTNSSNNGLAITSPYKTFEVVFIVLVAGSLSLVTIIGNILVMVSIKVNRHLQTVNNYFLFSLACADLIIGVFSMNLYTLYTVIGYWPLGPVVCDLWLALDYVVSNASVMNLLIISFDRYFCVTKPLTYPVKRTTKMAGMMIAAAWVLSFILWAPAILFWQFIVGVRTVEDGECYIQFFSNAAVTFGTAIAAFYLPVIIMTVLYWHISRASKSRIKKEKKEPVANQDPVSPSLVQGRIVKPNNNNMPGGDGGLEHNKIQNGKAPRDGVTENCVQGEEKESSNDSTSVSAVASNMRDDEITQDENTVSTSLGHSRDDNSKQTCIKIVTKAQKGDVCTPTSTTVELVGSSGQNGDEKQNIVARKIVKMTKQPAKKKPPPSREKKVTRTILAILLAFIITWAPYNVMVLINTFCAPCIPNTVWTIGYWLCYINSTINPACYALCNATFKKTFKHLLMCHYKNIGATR
# [6] = biological target: T5, Muscarinic acetylcholine receptor M4 (Rattus norvegicus, UniProt P08485); test: Agonist activity at rat muscarinic M4 expressed in CHO cells assessed as stimulation of calcium mobilization; type: functional, cell-based
# T5 sequence (P08485 whole entry): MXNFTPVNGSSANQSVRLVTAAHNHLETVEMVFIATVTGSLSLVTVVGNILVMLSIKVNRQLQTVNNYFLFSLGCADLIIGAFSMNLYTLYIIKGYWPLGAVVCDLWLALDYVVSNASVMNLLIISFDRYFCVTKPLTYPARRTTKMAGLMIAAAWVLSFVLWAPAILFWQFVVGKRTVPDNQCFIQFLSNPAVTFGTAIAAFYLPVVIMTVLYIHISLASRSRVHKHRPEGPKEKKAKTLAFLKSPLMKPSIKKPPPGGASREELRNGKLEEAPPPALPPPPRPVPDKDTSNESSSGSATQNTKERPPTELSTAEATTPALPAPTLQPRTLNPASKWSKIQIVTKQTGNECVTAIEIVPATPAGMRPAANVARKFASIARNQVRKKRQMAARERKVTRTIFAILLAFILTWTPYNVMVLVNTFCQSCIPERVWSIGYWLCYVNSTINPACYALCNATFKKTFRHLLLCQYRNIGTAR
# [7] = biological target: T6, Muscarinic acetylcholine receptor M1 (Rattus norvegicus) (UniProt P08482); test: Agonist activity at rat muscarinic M1 expressed in CHO cells assessed as stimulation of calcium mobilization at 30 uM; type: functional, cell-based
# T6 sequence (whole entry): T1 sequence (P08482 whole entry)
# [8] = biological target: Muscarinic acetylcholine receptor M3 (Homo sapiens) (UniProt P20309); test: Agonist activity at human muscarinic M3 expressed in CHO cells assessed as stimulation of calcium mobilization at 30 uM; type: functional, cell-based
# Chain of Muscarinic acetylcholine receptor M3 (Homo sapiens) (P20309 whole entry, looked up): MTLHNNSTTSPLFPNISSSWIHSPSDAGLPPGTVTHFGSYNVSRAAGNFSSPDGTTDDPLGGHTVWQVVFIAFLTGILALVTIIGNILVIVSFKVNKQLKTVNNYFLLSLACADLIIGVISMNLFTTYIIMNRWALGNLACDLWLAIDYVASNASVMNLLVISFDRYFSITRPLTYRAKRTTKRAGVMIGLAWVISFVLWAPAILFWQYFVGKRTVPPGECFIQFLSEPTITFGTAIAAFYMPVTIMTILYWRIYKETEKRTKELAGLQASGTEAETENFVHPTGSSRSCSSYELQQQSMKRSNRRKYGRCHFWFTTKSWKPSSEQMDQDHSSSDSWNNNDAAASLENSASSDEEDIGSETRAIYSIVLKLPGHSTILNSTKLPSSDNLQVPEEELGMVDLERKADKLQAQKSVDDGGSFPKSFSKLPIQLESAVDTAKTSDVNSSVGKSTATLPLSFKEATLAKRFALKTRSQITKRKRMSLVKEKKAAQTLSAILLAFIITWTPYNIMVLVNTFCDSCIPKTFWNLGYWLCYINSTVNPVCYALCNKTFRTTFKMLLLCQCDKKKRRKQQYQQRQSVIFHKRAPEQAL
SMILES,EC50 [1] [µM],EC50 [2] [µM],Activity [3] [%],Kp [4],EC50 [5] [µM],EC50 [6] [µM],Activity [7] [%],Activity [8] [%]
O=C1C(=O)N(Cc2ccc(-c3ccsc3)cc2)c2ccc(OC(F)(F)F)cc21,> 30,2.8,85,0.25,,,,
Cn1cc(-c2ccc(CN3C(=O)C(=O)c4cc(OC(F)(F)F)ccc43)cc2)cn1,> 30,3.3,85,0.25,,,,
O=C1C(=O)N(Cc2ccc(Br)cc2)c2ccccc21,,,,0.25,> 30,> 30,,
O=C1C(=O)N(Cc2ccc(Oc3ccccc3)cc2)c2ccc(OC(F)(F)F)cc21,,1.9,75,,,,,
O=C1C(=O)N(Cc2ccc(-c3ccc(F)nc3)cc2)c2ccc(OC(F)(F)F)cc21,> 30,3.6,80,0.25,,,,
O=C1C(=O)N(Cc2ccc(-c3ccccc3)cc2)c2cc(OC(F)(F)F)ccc21,,2.7,,,,,,
COc1ccc(CN2C(=O)C(=O)c3ccc(OC(F)(F)F)cc32)cc1,,5.7,,,,,,
O=C1C(=O)N(Cc2ccc(-c3ccccc3)cc2)c2ccc(OC(F)(F)F)cc21,> 30,2.7,85,0.25,,,,
O=C1C(=O)N(Cc2ccc(C(F)(F)F)cc2)c2c(Cl)cccc21,,,,0.25,,> 10,,
O=C1C(=O)N(Cc2ccc(-c3ccc(Cl)nc3)cc2)c2ccc(OC(F)(F)F)cc21,> 30,4.8,85,0.25,,,,
COc1ccc(CN2C(=O)C(=O)c3cc(OC(F)(F)F)ccc32)cc1,,1.1,,0.25,> 30,> 30,30,30
COc1ccccc1-c1ccc(CN2C(=O)C(=O)c3cc(OC(F)(F)F)ccc32)cc1,> 30,3.9,70,0.25,,,,
